# pIC50: −log10 of the molar value. Where a name gives a salt, the structure may show the parent alone.
# Tested on: KRas G12D-mediated phosphorylation of ERK
# Assay: Inhibition of KRas G12D-mediated phosphorylation of ERK in AGS cells
# Format: cell-based
# Details: Homo sapiens; AGS cells expressing G12D, 3 hours, phospho-ERK normalized to GAPDH
# Method in brief: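 Fixed, methanol-permeabilized; phospho-ERK (Thr202/Tyr204) by in-cell immunofluorescence normalized to GAPDH. Percent of DMSO control, IC50 by 4-parameter fit.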
row,Structure (SMILES),pIC50
1,"Oc1cc(-c2ncc3c(N4C[C@H]5CC[C@@H](C4)N5)nc(OC[C@@]45CCCN4C[C@H](F)C5)nc3c2F)c2c(F)cccc2c1 [Example 282, 4-(4-((1R,5S)-3,8-diazabicyclo[3.2.1]octan-3-yl)-8-fluoro-2-(((2R,7aS)-2-fluorohexahydro-1H-pyrrolizin-7a-yl)methoxy)pyrido[4,3-d]pyrimidin-7-yl)-5-fluoronaphthalen-2-ol]",8.31
2,"Oc1ccc(OC(F)(F)F)c(-c2ncc3c(N4CC5CCC(C4)N5)nc(OCC45CCCN4C[C@H](F)C5)nc3c2F)c1 (mixture of isomers) [Example 340, 3-(4-((1R,5S)-3,8-diazabicyclo[3.2.1]octan-3-yl)-8-fluoro-2-((2-fluorotetrahydro-1H-pyrrolizin-7a(5H)-yl)methoxy)pyrido[4,3-d]pyrimidin-7-yl)-4-(trifluoromethoxy)phenol]",7.29
3,"C[C@H]1C[C@H]1c1ccccc1-c1ncc2c(N3C[C@H]4CC[C@@H](C3)N4)nc(OCC34CCCN3CCC4)nc2c1F [Example 287, 4-((1R,5S)-3,8-diazabicyclo[3.2.1]octan-3-yl)-8-fluoro-2-((hexahydro-1H-pyrrolizin-7a-yl)methoxy)-7-(2-((1R,2S)-2-methylcyclopropyl)phenyl)pyrido[4,3-d]pyrimidine]",5.09
4,"Cc1cccnc1CCOc1nc(N2C[C@H]3CC[C@@H](C2)N3)c2cnc(-c3cc(O)cc4ccccc34)c(F)c2n1 [Example 6, 4-(4-((1R,5S)-3,8-diazabicyclo[3.2.1]octan-3-yl)-8-fluoro-2-(2-(3-methylpyridin-2-yl)ethoxy)pyrido[4,3-d]pyrimidin-7-yl)naphthalen-2-ol]",4.94
5,"CCC1(N)CN(c2nc(N3C[C@H]4CC[C@@H](C3)N4)c3cnc(-c4cc(O)cc5ccccc45)c(F)c3n2)C1 [Example 126, 4-(2-(3-amino-3-ethylazetidin-1-yl)-4-((1R,5S)-3,8-diazabicyclo[3.2.1]octan-3-yl)-8-fluoropyrido[4,3-d]pyrimidin-7-yl)naphthalen-2-ol]",5.46
6,"Fc1c(-c2cccc3cccc(Cl)c23)ncc2c(N3CC4CCC(C3)N4)nc(OC[C@@]34CCCN3C[C@H](F)C4)nc12 (stereo in doubt) [Example 134, 4-((1R,5S)-3,8-diazabicyclo[3.2.1]octan-3-yl)-7-(8-chloronaphthalen-1-yl)-8-fluoro-2-((2-fluorotetrahydro-1H-pyrrolizin-7a(5H)-yl)methoxy)pyrido[4,3-d]pyrimidine]",6.05
7,"Cc1ccc2cccc(-c3ncc4c(N5C[C@H]6CC[C@@H](C5)N6)nc(OC[C@@H]5CCCN5C)nc4c3F)c2c1 [Example 321, 4-((1R,5S)-3,8-diazabicyclo[3.2.1]octan-3-yl)-8-fluoro-7-(7-methylnaphthalen-1-yl)-2-(((S)-1-methylpyrrolidin-2-yl)methoxy)pyrido[4,3-d]pyrimidine]",< 4.78
8,"Fc1c(-c2cccc3cccc(Cl)c23)ncc2c(N3C[C@H]4CC[C@@H](C3)N4)nc(OCC34CCCCN3CCC4)nc12 (stereo partly drawn) [Example 54, 4-((1R,5S)-3,8-diazabicyclo[3.2.1]octan-3-yl)-7-(8-chloronaphthalen-1-yl)-8-fluoro-2-((hexahydroindolizin-8a(1H)-yl)methoxy)pyrido[4,3-d]pyrimidine]",< 4.78
9,"CN1CCC[C@H]1CCOc1nc(N2C[C@H]3CC[C@@H](C2)N3)c2cnc(-c3cc(O)cc4ccccc34)c(F)c2n1 [Example 10, 4-(4-((1R,5S)-3,8-diazabicyclo[3.2.1]octan-3-yl)-8-fluoro-2-(2-((S)-1-methylpyrrolidin-2-yl)ethoxy)pyrido[4,3-d]pyrimidin-7-yl)naphthalen-2-ol]",5.09
10,"COc1nc(N2C[C@H]3CC[C@@H](C2)N3)c2cnc(-c3cc(O)cc4cccc(Cl)c34)c(F)c2n1 [Example 360, 4-(4-((1R,5S)-3,8-diazabicyclo[3.2.1]octan-3-yl)-8-fluoro-2-methoxypyrido[4,3-d]pyrimidin-7-yl)-5-chloronaphthalen-2-ol]",5.08
11,"C[C@H]1C[C@@H]1c1c(Cl)cc(O)cc1-c1ncc2c(N3C[C@H]4CC[C@@H](C3)N4)nc(OC[C@@]34CCCN3C[C@H](F)C4)nc2c1F [Example 451, 3-(4-((1R,5S)-3,8-diazabicyclo[3.2.1]octan-3-yl)-8-fluoro-2-(((2R,7aS)-2-fluorotetrahydro-1H-pyrrolizin-7a(5H)-yl)methoxy)pyrido[4,3-d]pyrimidin-7-yl)-5-chloro-4-((1S,2S)-2-methylcyclopropyl)phenol]",7.11
12,"Fc1c(-c2ccccc2C2CC2)ncc2c(N3C[C@H]4CC[C@@H](C3)N4)nc(OCC34CCCN3CCC4)nc12 [Example 297, 4-((1R,5S)-3,8-diazabicyclo[3.2.1]octan-3-yl)-7-(2-cyclopropylphenyl)-8-fluoro-2-((hexahydro-1H-pyrrolizin-7a-yl)methoxy)pyrido[4,3-d]pyrimidine]",5.18
13,"CN1CCC[C@H]1COc1nc(N2CC3CCC(C(N)=O)(C2)N3)c2cnc(-c3cc(O)cc4ccccc34)c(F)c2n1 (stereo partly drawn) [Example 159, 3-(8-fluoro-7-(3-hydroxynaphthalen-1-yl)-2-(((S)-1-methylpyrrolidin-2-yl)methoxy)pyrido[4,3-d]pyrimidin-4-yl)-3,8-diazabicyclo[3.2.1]octane-1-carboxamide bis(2,2,2-trifluoroacetate)]",< 4.78
14,"CCc1cccc2cc(O)cc(-c3ncc4c(N5C[C@H]6CC[C@@H](C5)N6)nc(OC[C@]56CCCN5[C@@H](COC(=O)NC)CC6)nc4c3F)c12 [Example 433, ((3R,7aR)-7a-(((4-((1R,5S)-3,8-diazabicyclo[3.2.1]octan-3-yl)-7-(8-ethyl-3-hydroxynaphthalen-1-yl)-8-fluoropyrido[4,3-d]pyrimidin-2-yl)oxy)methyl)hexahydro-1H-pyrrolizin-3-yl)methyl methylcarbamate]",7.36
15,"Cn1cc([C@H]2CN3CCC[C@]3(COc3nc(N4CC5CCC(C4)N5)c4cnc(-c5cccc6cccc(Cl)c56)c(F)c4n3)C2)cn1 (stereo in doubt) [Example 220, 4-((1R,5S)-3,8-diazabicyclo[3.2.1]octan-3-yl)-7-(8-chloronaphthalen-1-yl)-8-fluoro-2-((2-(1-methyl-1H-pyrazol-4-yl)tetrahydro-1H-pyrrolizin-7a(5H)-yl)methoxy)pyrido[4,3-d]pyrimidine tris-hydrochloride salt]",5.87
16,"Fc1c(-c2cccc3cccc(OC(F)F)c23)ncc2c(N3C[C@H]4CC[C@@H](C3)N4)nc(OCC34CCCN3CCC4)nc12 [Example 346, 4-((1R,5S)-3,8-diazabicyclo[3.2.1]octan-3-yl)-7-(8-(difluoromethoxy)naphthalen-1-yl)-8-fluoro-2-((tetrahydro-1H-pyrrolizin-7a(5H)-yl)methoxy)pyrido[4,3-d]pyrimidine]",5.87
17,"CCCc1cccc2cccc(-c3ncc4c(N5C[C@H]6CC[C@@H](C5)N6)nc(OCC56CCCN5CCC6)nc4c3F)c12 [Example 254, 4-((1R,5S)-3,8-diazabicyclo[3.2.1]octan-3-yl)-8-fluoro-2-((hexahydro-1H-pyrrolizin-7a-yl)methoxy)-7-(8-propylnaphthalen-1-yl)pyrido[4,3-d]pyrimidine]",5.61
